Experimental findings from EP1019392B1, “TRICYCLIC AMIDES USEFUL FOR INHIBITION OF G-PROTEIN FUNCTION AND FOR TREATMENT OF PROLIFERATIVE DISEASES” (SCHERING CORPORATION, priority 1995, dated 1997) are described below.

Read-outs that look alike come from different tables or passages of the source.

Assay [1] deals with T1, farnesyl protein transferase (FPT) (Rattus norvegicus, UniProt Q02293+Q04631).
T1 construct: were partially purified from rat brain by ammonium sulfate fractionation followed by Q-Sepharose; from tissue; host or cells: rat brain
As to the kind of experiment: In vitro enzyme assay: inhibition of farnesyl protein transferase (transfer of [3H]farnesyl to Ras-CVLS). It counts as biochemical. As to conditions: partially purified rat brain FPT, Ras-CVLS. As for the experimental part: • 1. In vitro enzyme assays: Inhibition of farnesyl protein transferase and geranylgeranyl protein transferase. […] Human farnesyl protein transferase was also expressed in E. coli, using cDNA clones encoding both the a and b subunits. […] Human farnesyl protein transferase was partially-purified from the soluble protein fraction of E. coli as described above. […] Two forms of val^12-Ha-Ras protein were prepared as substrates for these enzymes, differing in their carboxy terminal sequence. One form terminated in cysteine-valine-leucine-serine (Ras-CVLS) the other in cystein-valine-leucine-leucine (Ras-CVLL). Ras-CVLS is a substrate for the farnesyl protein transferase while Ras-CVLL is a substrate for geranylgeranyl protein transferase I. The cDNAs encoding these proteins were constructed so that the proteins contain an amino-terminal extension of 6 histidine residues. Both proteins were expressed in Escherichia coli and purified using metal chelate affinity chromatography. The radiolabelled isoprenyl pyrophosphate substrates, [^3H]farnesyl pyrophosphate and [^3H]geranylgeranyl pyrophosphate, were purchased from DuPont/New England Nuclear. […] The reaction was allowed to proceed for 30 minutes at room temperature and then stopped with 0.5 ml of 4% sodium dodecyl sulfate (SDS) followed by 0.5 ml of cold 30% TCA. Samples were allowed to sit on ice for 45 minutes and precipitated Ras protein was then collected on GF/C filter paper mats using a Brandel cell harvester. […] Percent inhibition was calculated relative to the DMSO vehicle control. The geranylgeranyl protein transferase I assay was essentially identical to the farnesyl protein transferase assay described above, with two exceptions: [^3H]geranylgeranylpyrophosphate replaced farnesyl pyrophosphate as the isoprenoid donor and Ras-CVLL was the protein acceptor. […] Cell-Based Assay: Transient expression of val^12-Ha-Ras-CVLS and val^12-Ha-Ras-CVLL in COS monkey kidney cells: Effect of farnesyl protein transferase inhibitors on Ras processing and on disordered cell growth induced by transforming Ras. COS monkey kidney cells were transfected by electroporation with the plasmid pSV-SPORT (Gibco/BRL) containing a cDNA insert encoding either Ras-CVLS or Ras-CVLL, leading to transient overexpression of a Ras substrate for either farnesyl protein transferase or geranylgeranyl protein transferase I, respectively (see above). Following electroporation, cells were plated into 6-well tissue culture dishes containing 1.5 ml of Dulbecco's-modified Eagle's media (GIBCO, Inc.) supplemented with 10% fetal calf serum and the appropriate farnesyl protein transferase inhibitors. After 24 hours, media was removed and fresh media containing the appropriate drugs was re-added. 48 hours after electroporation cells were examined under the microscope to monitor disordered cell growth induced by transforming Ras. Cells expressing transforming Ras become more rounded and refractile and overgrow the monolayer, reminiscent of the transformed phenotype. Cells were then photographed, washed twice with 1 ml of cold phosphate-buffered saline (PBS) and removed from the dish by scraping with a rubber policeman into 1 ml of a buffer containing 25 mM Tris, pH 8.0; 1 mM ethylenediamine tetraacetic acid; 1 mM phenylmethylsulfonyl fluoride; […] leupeptin; and 0.1 mM pepstatin. Cells were lysed by homogenization and cell debris was removed by centrifugation at 2000 x g for 10 min. Cellular protein was precipitated by addition of ice-cold trichloroacetic acid and redissolved in […] of SDS-electrophoresis sample buffer. […] Proteins resolved on the gels were electroblotted onto nitrocellulose membranes for immunodetection. […] After washing, membranes were incubated for one hour at room temperature with a 1:5000 dilution of secondary antibody, rabbit anti-rat IgG conjugated to horseradish peroxidase, in PBS containing 1% fetal calf serum.

The subject of assay [2] is T24-BAG4 human bladder carcinoma cells expressing an activated H-ras gene. Nature of the assay: Cell Mat Assay, T24 tumor cells. It counts as cell-based. As to conditions: read-out: Tumor (T-24) IC50.
Assay [3] deals with DLD-1-BAG human colon carcinoma cells expressing as activated K-ras gene. As to the kind of experiment: Cell Mat Assay, DLD-1 tumor cells. The class given is cell-based.
Assay [4] deals with Normal human HEPM fibroblasts. As to the kind of experiment: Cell Mat Assay, normal cell mat. The class given is cell-based. The note with it: normal monolayer.
Assay [5] relates to SW620-BAG human colon carcinoma cells expressing an activated K-ras gene. Nature of the assay: Cell Mat Assay, SW620 tumor cells. The class given is cell-based.
Assay [6] relates to Ras-CVLS processing in COS monkey kidney cells. Nature of the assay: COS cell assay: inhibition of Ras-CVLS processing (Western blot). It counts as cell-based. An excerpt: • 1. In vitro enzyme assays: Inhibition of farnesyl protein transferase and geranylgeranyl protein transferase. Both farnesyl protein transferase (FPT) and geranylgeranyl protein transferase (GGPT) I were partially purified from rat brain by ammonium sulfate fractionation followed by Q-Sepharose (Pharmacia, Inc.) anion exchange chromatography essentially as described by Yokoyama et al (Yokoyama, K., et al., (1991), A protein geranylgeranyltransferase from bovine brain: Implications for protein prenylation specificity, Proc. Natl. Acad. Sci USA 88: 5302-5306, the disclosure of which is incorporated herein by reference thereto). Human farnesyl protein transferase was also expressed in E. coli, using cDNA clones encoding both the a and b subunits. The methods used were similar to those published (Omer, C. et al., (1993), Characterization of recombinant human farnesyl protein transferase: Cloning, expression, farnesyl diphosphate binding, and functional homology with yeast prenyl-protein transferases, Biochemistry 32:5167-5176). Human farnesyl protein transferase was partially-purified from the soluble protein fraction of E. coli as described above. […] Two forms of val^12-Ha-Ras protein were prepared as substrates for these enzymes, differing in their carboxy terminal sequence. One form terminated in cysteine-valine-leucine-serine (Ras-CVLS) the other in cystein-valine-leucine-leucine (Ras-CVLL). Ras-CVLS is a substrate for the farnesyl protein transferase while Ras-CVLL is a substrate for geranylgeranyl protein transferase I. The cDNAs encoding these proteins were constructed so that the proteins contain an amino-terminal extension of 6 histidine residues. Both proteins were expressed in Escherichia coli and purified using metal chelate affinity chromatography. The radiolabelled isoprenyl pyrophosphate substrates, [^3H]farnesyl pyrophosphate and [^3H]geranylgeranyl pyrophosphate, were purchased from DuPont/New England Nuclear. Several methods for measuring farnesyl protein transferase activity have been described (Reiss et al 1990, Cell 62: 81; Schaber et al 1990, J. Biol. Chem. 265: 14701; Manne et al 1990, PNAS 87: 7541; and Barbacid & Manne 1993, U.S. Patent No. 5,185,248). […] The reaction was allowed to proceed for 30 minutes at room temperature and then stopped with 0.5 ml of 4% sodium dodecyl sulfate (SDS) followed by 0.5 ml of cold 30% TCA. Samples were allowed to sit on ice for 45 minutes and precipitated Ras protein was then collected on GF/C filter paper mats using a Brandel cell harvester. Filter mats were washed once with 6% TCA, 2% SDS and radioactivity was measured in a Wallac 1204 Betaplate BS liquid scintillation counter. Percent inhibition was calculated relative to the DMSO vehicle control. The geranylgeranyl protein transferase I assay was essentially identical to the farnesyl protein transferase assay described above, with two exceptions: [^3H]geranylgeranylpyrophosphate replaced farnesyl pyrophosphate as the isoprenoid donor and Ras-CVLL was the protein acceptor. […] Cell-Based Assay: Transient expression of val^12-Ha-Ras-CVLS and val^12-Ha-Ras-CVLL in COS monkey kidney cells: Effect of farnesyl protein transferase inhibitors on Ras processing and on disordered cell growth induced by transforming Ras. COS monkey kidney cells were transfected by electroporation with the plasmid pSV-SPORT (Gibco/BRL) containing a cDNA insert encoding either Ras-CVLS or Ras-CVLL, leading to transient overexpression of a Ras substrate for either farnesyl protein transferase or geranylgeranyl protein transferase I, respectively (see above). Following electroporation, cells were plated into 6-well tissue culture dishes containing 1.5 ml of Dulbecco's-modified Eagle's media (GIBCO, Inc.) supplemented with 10% fetal calf serum and the appropriate farnesyl protein transferase inhibitors. After 24 hours, media was removed and fresh media containing the appropriate drugs was re-added.
A general note: In western blotting, separated proteins are transferred to a membrane and probed.

The test system of assay [7] is DLD-1 (human colon carcinoma cells, ATCC # CCL 221). As to the kind of experiment: In Vivo Anti-Tumor Studies, subcutaneous DLD-1 tumors. The note with it: Mus musculus, DLD-1, po, QID, 4 weeks, range over the listed compounds. Further details: species or system athymic nu/nu female mice. The source says:
Tumor cells (5 X 10^5 to 8 X 10^6) of DLD-1 (human colon carcinoma cells, ATCC # CCL 221) are innolculated subcutaneously into the flank of 5-6 week o;d athymic nu/nu female mice.

The mark [8] stands for this setting: Homo sapiens, SW-620, Mat assay.

What is called IC50 is the point on the concentration scale where inhibition reaches its midpoint. Take `O=C(Cc1cc[n+]([O-])cc1)N1CCN(C2c3ncc(Br)cc3CCc3cc(Cl)cc(Cl)c32)CC1` (single isomer, unassigned) [Example 19]: the concentration for half-maximal inhibition (IC50) in assay [1] (Table 1, read-out: FPT IC50) is under 0.0038 µM; in assay [2] (Homo sapiens), under 1.6 µM; in assay [3] (Homo sapiens, DLD-1, Mat assay) it was under 1.6 µM; in assay [4] (Homo sapiens, Fibroblast), over 25 µM; in assay [5] (setting [8]) it was 6.25 µM.

As for `NC(=O)N1CCC(CC(=O)N2CCN([C@H]3c4ccc(Cl)cc4CCc4cc(Br)cnc43)CC2)CC1` [Example 17A], the IC50 in assay [1] (Table 1, read-out: FPT IC50) is 0.048 µM; in assay [2] (Homo sapiens) it was 3.1 µM; in assay [3] (Homo sapiens, DLD-1, Mat assay), 4 µM; in assay [4] (Homo sapiens, Fibroblast), over 25 µM; in assay [5] (setting [8]), 18 µM; in assay [6] (Primates, COS), 0.5 µM.

As a reminder, the inhibition in vivo is the change of the read-out against control, counted positive when it falls. Consider `NC(=O)N1CCC(CC(=O)N2CCN(C3c4ncc(Br)cc4CCc4cc(Cl)cc(Br)c43)CC2)CC1` (single isomer, unassigned) [Example 12B], for which the IC50 is 0.0025 µM in assay [1] (FPT IC50, Table 1); under 1.6 µM in assay [2]; 3.1 µM in assay [3] (Mat assay); over 25 µM in assay [4]; 6.25 µM in assay [5] (Mat assay); under 0.025 µM in assay [6]. Moreover, the inhibition in vivo at 10 mg/kg in assay [7] (10 mg/kg p.o.) fell in the range of 7 to 50%. In addition, the inhibition in vivo at 50 mg/kg in assay [7] (50 mg/kg p.o.) fell in the range of 35.4 to 83%.

For `NC(=O)N1CCC(CC(=O)N2CCC(=C3c4ncc(Br)cc4CCc4cc(Cl)cc(Br)c43)CC2)CC1` (single isomer, unassigned) [Example 8A], the 50% inhibitory concentration (IC50) in assay [2] (Homo sapiens) was under 1.6 µM; in assay [3] (Homo sapiens, DLD-1, Mat assay), under 1.6 µM; in assay [4] (Homo sapiens, Fibroblast), over 25 µM; in assay [5] (setting [8]), 3.1 µM; in assay [6], over 1 µM.

Consider `NC(=O)N1CCC(CC(=O)N2CCC(=C3c4ncc(Br)cc4CCc4cc(Cl)cc(Br)c43)CC2)CC1` (racemic) [Example 8], for which the IC50 was under 1.6 µM in assay [2] (Homo sapiens); 3.1 µM in assay [3] (Homo sapiens, DLD-1, Mat assay); over 25 µM in assay [4] (Homo sapiens, Fibroblast); 3.1 µM in assay [5] (setting [8]); under 0.25 µM in assay [6] (Primates, COS).

As for `NC(=O)N1CCC(CC(=O)N2CCN(C3c4ncc(Br)cc4CCc4cc(Cl)cc(Br)c43)CC2)CC1` (single isomer, unassigned) [Example 12A], the half-maximal inhibitory concentration (IC50) in assay [1] (FPT IC50, Table 1) is over 0.094 µM; in assay [2] (Homo sapiens), under 1.6 µM; in assay [3] (Homo sapiens, DLD-1, Mat assay), 2 µM; in assay [4] (Homo sapiens, Fibroblast) it was over 25 µM; in assay [5] (setting [8]) it was 4 µM; in assay [6], 0.95 µM.

With `O=C(Cc1cc[n+]([O-])cc1)N1CCC(C2c3ccc(Cl)c(Br)c3CCc3cc(Br)cnc32)CC1` (single isomer, unassigned) [Example 14], the IC50 is 0.062 µM in assay [1] (Table 1, read-out: FPT IC50); under 1.6 µM in assay [2]; 6.25 µM in assay [3] (Mat assay); over 25 µM in assay [4]; over 12.5 µM in assay [5] (Mat assay); over 1 µM in assay [6].

With `NC(=O)N1CCC(CC(=O)N2CCC(=C3c4ccc(Cl)c(Br)c4CCc4cc(Br)cnc43)CC2)CC1` (racemic) [Example 15], the IC50 in assay [1] (Table 1, read-out: FPT IC50) was 0.022 µM; in assay [2] (Homo sapiens), 3.1 µM; in assay [3] (Homo sapiens, DLD-1, Mat assay) it was 6.25 µM; in assay [4] (Homo sapiens, Fibroblast), over 25 µM; in assay [5] (setting [8]), over 6.25 µM; in assay [6] (Primates, COS) it was 0.6 µM.
